From patent US20110294799A1, “Organic Compounds” (NOVARTIS AG, priority 2007, published 2011) come the findings set out here.

For test [1], the target named is T1, GABA-A alpha1 receptor (alpha 1 subunit together with a beta and a gamma subunit) (Homo sapiens, UniProt P14867+P18507).
T1 construct: expressed in transfected cells
T1 sequence (P14867 28-456): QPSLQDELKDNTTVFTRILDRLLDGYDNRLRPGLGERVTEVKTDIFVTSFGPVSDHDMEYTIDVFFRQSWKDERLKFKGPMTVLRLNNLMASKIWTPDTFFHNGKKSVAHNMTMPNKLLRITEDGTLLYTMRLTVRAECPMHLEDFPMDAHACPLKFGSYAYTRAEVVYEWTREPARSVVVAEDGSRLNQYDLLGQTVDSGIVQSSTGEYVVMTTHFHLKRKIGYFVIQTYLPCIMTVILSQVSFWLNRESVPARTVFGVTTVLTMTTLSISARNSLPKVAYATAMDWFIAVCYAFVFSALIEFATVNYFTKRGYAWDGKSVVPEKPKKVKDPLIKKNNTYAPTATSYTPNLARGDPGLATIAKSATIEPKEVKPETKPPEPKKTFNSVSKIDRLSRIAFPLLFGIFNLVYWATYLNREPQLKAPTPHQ
T1 sequence (P47870 25-512 partner limits assumed): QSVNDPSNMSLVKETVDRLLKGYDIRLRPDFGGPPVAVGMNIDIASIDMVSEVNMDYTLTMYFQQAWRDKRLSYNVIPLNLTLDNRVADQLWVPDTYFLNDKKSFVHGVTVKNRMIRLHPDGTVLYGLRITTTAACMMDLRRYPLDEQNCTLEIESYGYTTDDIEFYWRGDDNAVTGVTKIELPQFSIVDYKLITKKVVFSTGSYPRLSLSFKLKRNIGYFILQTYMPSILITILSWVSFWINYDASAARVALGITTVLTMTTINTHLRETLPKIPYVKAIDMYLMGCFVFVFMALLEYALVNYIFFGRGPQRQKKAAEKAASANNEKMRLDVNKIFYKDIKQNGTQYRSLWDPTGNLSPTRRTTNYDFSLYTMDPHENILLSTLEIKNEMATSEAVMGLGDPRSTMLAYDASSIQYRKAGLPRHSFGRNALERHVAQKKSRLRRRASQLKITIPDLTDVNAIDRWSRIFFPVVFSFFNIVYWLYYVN
T1 sequence (P18507 40-467 limits assumed): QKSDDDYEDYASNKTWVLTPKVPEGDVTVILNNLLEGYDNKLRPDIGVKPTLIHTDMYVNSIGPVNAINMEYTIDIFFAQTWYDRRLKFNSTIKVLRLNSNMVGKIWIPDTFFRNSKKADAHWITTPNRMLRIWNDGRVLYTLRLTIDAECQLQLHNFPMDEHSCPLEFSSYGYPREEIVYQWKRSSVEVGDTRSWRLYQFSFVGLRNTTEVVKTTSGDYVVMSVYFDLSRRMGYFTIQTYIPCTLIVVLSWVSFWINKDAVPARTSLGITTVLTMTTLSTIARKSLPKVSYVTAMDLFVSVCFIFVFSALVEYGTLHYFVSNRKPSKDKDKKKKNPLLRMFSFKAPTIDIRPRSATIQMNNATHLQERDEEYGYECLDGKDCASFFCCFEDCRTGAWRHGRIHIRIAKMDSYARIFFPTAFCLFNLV
Put plainly: GABA-A receptor modulation, voltage-sensitive dye fluorescence in transfected eukaryotic cell line (alpha1). Conditions: compounds at 3 μM, sub-maximal concentration of GABA (EC20). The test is classed as cell-based. The source says: (§1) GABA-A receptor modulators show in functional assays a positive modulation of GABA-induced signals. This modulation can be determined in vitro, e.g., at recombinant GABA-A receptors expressed in a mammalian cell line, e.g. by measurement of GABA-A receptor induced changes of the trans-membrane voltage, when using a voltage-sensitive dye and a fluorescence detection system (Adkins, C. E., Pillai, G. V., Kerby, J., Bonnert, T. P., Haldon, C., Mckernan, R. M., Gonzalez, J. E., Oades, K., Whiting, P. J. & Simpson, P. B. [2001]. alpha4beta3delta GABA-A receptors characterized by fluorescence resonance energy transfer-derived measurements of membrane potential. J. Biol. Chem., 276, 38934-38939). In this assay, a modulator compound is pre-applied at different concentrations ranging from 0.1 nM to 10 μM to cells expressing GABA-A receptors and loaded with the voltage-sensitive dye, before, or at the same time as, a sub-maximal concentration of GABA (in the range of from 0.1 to 10 μM) is applied to the cells. The fluorescent signal is correlated with the degree of GABA-A receptor channel opening. This allows the quantification of effects induced by the modulator in a functional manner. By expression of different GABA-A receptor subunit combinations, the differential efficacy of a modulator at different GABA-A receptor variants can be tested. Other functional assays include the electrophysiological recording of Xenopus oocytes or mammalian cells expressing respective receptor variants. In addition, ion flux detectors can be used to functionally study GABA-A receptors in heterologous expression systems. The affinity of a compound to the GABA-A receptor can be measured in radioligand binding experiments using reference ligands containing a radioactive element, e.g., tritiated flumazenil, and intact cells or membrane preparations of cells expressing GABA-A receptors.
(§2) Activity and selectivity of a GABA-A receptor modulator according to the invention can, e.g., be determined in vitro as follows: A transfected eukaryotic cell line expressing the alpha1, alpha2 or alpha3 subunit of the GABA-A receptor together with a beta and a gamma subunit of the GABA-A receptor is incubated with a voltage-sensitive dye, and the effects of an agonist (typically GABA) or modulator addition are recorded in a fluorimetric plate reader. The opening of the GABA-A receptor channel and the subsequent flux of anions through it changes the trans-membrane voltage of the transfected cells, leading to a change in the fluorescent signal of the voltage-sensitive dye. In the presence of the agent of the invention, a sub-maximal concentration of GABA (e.g. an EC20 or an EC50) added to transfected cells expressing the alpha1, alpha2 or alpha3 subunit of the GABA-A receptor will elicit an at least 50%, preferably an at least 80%, ideally an at least 100%, increase, of the fluorescent signal, compared to the fluorescent signal obtained without the agent of the invention. In this assay, agents of the invention modulate the GABA-induced response at concentration from about 0.1 to about 10′000 nM.

Test [2] addresses T2, GABA-A alpha2 receptor (alpha 2 subunit together with a beta and a gamma subunit) (Homo sapiens, UniProt P18507+P47869).
T2 construct: expressed in transfected cells
T2 sequence (P47869 29-451): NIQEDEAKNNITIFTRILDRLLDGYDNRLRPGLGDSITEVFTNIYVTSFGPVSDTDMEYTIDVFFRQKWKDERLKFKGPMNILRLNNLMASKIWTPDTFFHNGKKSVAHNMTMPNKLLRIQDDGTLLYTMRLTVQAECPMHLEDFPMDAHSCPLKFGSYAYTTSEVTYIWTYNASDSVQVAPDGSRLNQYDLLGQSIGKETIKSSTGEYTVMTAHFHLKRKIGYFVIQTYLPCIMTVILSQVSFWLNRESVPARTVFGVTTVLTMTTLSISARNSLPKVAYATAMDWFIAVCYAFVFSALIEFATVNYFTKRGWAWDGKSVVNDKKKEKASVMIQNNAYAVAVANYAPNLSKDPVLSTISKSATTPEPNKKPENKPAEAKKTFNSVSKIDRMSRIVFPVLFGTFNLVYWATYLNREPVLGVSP
T2 sequence (P47870 25-512 partner limits assumed): T1 sequence (P47870 25-512 partner limits assumed)
T2 sequence (P18507 40-467 limits assumed): T1 sequence (P18507 40-467 limits assumed)
Put plainly: GABA-A receptor modulation, voltage-sensitive dye fluorescence in transfected eukaryotic cell line (alpha2). The test is classed as cell-based. Conditions: compounds at 3 μM, sub-maximal concentration of GABA (EC20).
Description: as §1, §2

As for `Clc1ccccc1COc1c2cnc3ccccc3c2nn1-c1ccccn1` [Example 34, 3-[(2-chlorobenzypoxy]-2-pyridin-2-y1-2H-pyrazolo[4,3-c]quinoline], the “alpha1 % mod (percentage of increase of the fluorescent signal compared to signal without the agent)” value in test [1] was 13 % mod. In addition, the “alpha2 % mod (percentage of increase of the fluorescent signal compared to signal without the agent)” value in test [2] was found to be 57 % mod.
For `COc1ccc(-n2nc3c(cnc4ccccc43)c2OCc2ccc(Cl)cc2)cc1` [Example 89, 3-(4-Chloro-benzyloxy)-2-(4-methoxy-phenyl)-2H-pyrazolo[4,3-c]quinoline], the results for the activation at 3 µM in test [1] (read-out: alpha1 % mod (percentage of increase of the fluorescent signal compared to signal without the agent)) and in test [2] (read-out: alpha2 % mod (percentage of increase of the fluorescent signal compared to signal without the agent)) were 23% and 69%, respectively.
